≈ marks a conversion by molar mass, not a printed value.
Experiments:
Type in all cases: functional
Staphylococcus aureus [1] = experiment: Antibacterial activity against Staphylococcus aureus ATCC 29213 after 18 to 24 hrs
Enterococcus faecalis = experiment: Antibacterial activity against Enterococcus faecalis ATCC 29212 after 18 to 24 hrs
Escherichia coli = experiment: Antibacterial activity against Escherichia coli ATCC 25922 after 18 to 24 hrs
Pseudomonas aeruginosa = experiment: Antibacterial activity against Pseudomonas aeruginosa ATCC 27853 after 18 to 24 hrs
Staphylococcus aureus [2] = experiment: Antibacterial activity against methicillin-resistant Staphylococcus aureus ATCC 43300 after 18 to 24 hrs
Streptococcus pyogenes = experiment: Antibacterial activity against Streptococcus pyogenes ATCC 19615 after 18 to 24 hrs
Streptococcus pneumoniae = experiment: Antibacterial activity against Streptococcus pneumoniae ATCC 49619 after 18 to 24 hrs

Row | Compound | MIC (Staphylococcus aureus [1]) [µg/mL] | MIC (Enterococcus faecalis) [µg/mL] | MIC (Escherichia coli) [µg/mL] | MIC (Pseudomonas aeruginosa) [µg/mL] | MIC (Staphylococcus aureus [2]) [µg/mL] | MBC (Streptococcus pyogenes) [µg/mL] | MBC (Streptococcus pneumoniae) [µg/mL]
1 | Cl.N#Cc1ccc(CN2C(=O)C(CCOc3ccc(CCN)cc3)Oc3ccccc32)cc1 (stereo not drawn) | 64 | 64 |  |  |  |  | 
2 | COc1cc(C=C2C(=O)NC(=O)NC2=O)cc(OC)c1OC | > 128 | > 128 | > 128 | > 128 |  |  | 
3 | O=C1NC(=O)C(=Cc2ccc(F)c(F)c2F)C(=O)N1 | 32 (≈ 118 µM) | > 128 | > 128 | > 128 | 128 (≈ 474 µM) |  | 
4 | O=C1NC(=S)S/C1=C\CC1Oc2ccccc2N(Cc2ccc(Cl)cc2)C1=O (stereo not drawn) | 32 (≈ 74.3 µM) | > 128 | > 128 | > 128 |  |  | 
5 | N#Cc1ccc(CN2C(=O)C(C/C=C3\SC(=S)NC3=O)Oc3ccccc32)cc1 (stereo not drawn) | 32 (≈ 75.9 µM) | 32 (≈ 75.9 µM) | > 128 | > 128 |  |  | 
6 | Cl.NCCc1ccc(OCCC2Oc3ccccc3N(Cc3ccc(Cl)cc3)C2=O)cc1 (stereo not drawn) | 8 | 16 |  |  |  |  | 
7 | O=C1NC(=O)/C(=C/c2ccc(F)c(F)c2F)S1 | 32 (≈ 123 µM) | > 128 | > 128 | > 128 | 64 (≈ 247 µM) |  | 
8 | COc1cc(/C=C2\SC(=O)NC2=O)cc(OC)c1OC | > 128 | > 128 | > 128 | > 128 |  |  | 
9 | O=C1NC(=S)S/C1=C\c1ccc(F)c(F)c1F | 0.5 (≈ 1.82 µM) | > 128 | > 128 | > 128 | 32 (≈ 116 µM) | > 128 | 64 (≈ 232 µM)
10 | O=C1NC(=S)S/C1=C\c1ccc(O)c(O)c1O | > 128 | > 128 |  |  |  |  | 
11 | O=C(O)CN1C(=O)/C(=C/c2ccc(F)c(F)c2F)SC1=S | > 128 | > 128 | > 128 | > 128 |  |  | 
12 | COc1cc(/C=C2\SC(=S)N(CC(=O)O)C2=O)cc(OC)c1OC | > 128 | > 128 | > 128 | > 128 |  |  | 
13 | COc1cc(C=C2C(=O)NC(=S)NC2=O)cc(OC)c1OC | > 128 | > 128 | > 128 | > 128 |  |  | 
14 | COc1cc(/C=C2\SC(=S)NC2=O)cc(OC)c1OC | 8 (≈ 25.7 µM) | > 128 | > 128 | > 128 | 128 (≈ 411 µM) | > 128 | > 128

Source: ChEMBL document CHEMBL1157018, “Synthesis and antibacterial activity of 5-ylidenethiazolidin-4-ones and 5-benzylidene-4,6-pyrimidinediones” (2010)
